According to patent US6573274B1, “Sulfonamide compounds and uses thereof as medicines” (Fujisawa Pharmaceutical Co. Ltd., priority 1998, dated 2003):
Where a name gives a salt, the structure may show the parent alone.

| SMILES | melting point |
| --- | --- |
| CCCCCS(=O)(=O)NC(=O)c1ccc2nc(C)n(Cc3ccc(OCCCC)cc3Cl)c2n1 [Example 17, 3-(2-chloro-4-(1-butoxy)benzyl)-2-methyl-5-(1-pentanesulfonylcarbamoyl)-3H-imidazo[4,5-b]pyridine] | 133 to 136 °C |
| CCCCNS(=O)(=O)NC(=O)c1ccc2nc(C)n(Cc3ccc(OCC)cc3Cl)c2n1 [Example 11, 5-((1-butylaminosulfonyl)carbamoyl)-3-(2-chloro-4-ethoxybenzyl)-2-methyl-3H-imidazo[4,5-b]pyridine] | 175 to 177 °C |
| CCCCCS(=O)(=O)NC(=O)c1cc(C)c2nc(C)n(Cc3ccc(N(C)C(=O)OC(C)(C)C)cc3Cl)c2n1 [Example 77, 3-(4-(N-(tert-butoxycarbonyl)-N-methylamino)-2-chlorobenzyl)-2,7-dimethyl-5-(1-pentanesulfonylcarbamoyl)-3H-imidazo[4,5-b]pyridine] | 193 to 194 °C |
| CCCCCS(=O)(=O)NC(=O)c1ccc2nc(C)n(Cc3ccc(N(C)C(=O)OC(C)(C)C)cc3Cl)c2n1 [Example 41, 3-(4-(N-(tert-butoxycarbonyl)-N-methylamino)-2-chlorobenzyl)-2-methyl-5-(1-pentanesulfonylcarbamoyl)-3H-imidazo[4,5-b]pyridine] | 160 to 161 °C |
| CCCCS(=O)(=O)NC(=O)c1ccc2nc(C)n(Cc3ccc(OCCC)cc3Cl)c2n1 [Example 13, 5-(1-butanesulfonylcarbamoyl)-3-(2-chloro-4-(1-propoxy)benzyl)-2-methyl-3H-imidazo[4,5-b]pyridine] | 153 to 154 °C |
| CCCCCS(=O)(=O)NC(=O)c1ccc2nc(C)n(Cc3ccc(-c4ccccc4)nc3Cl)c2n1 [Example 127, 3-[(2-chloro-6-phenylpyridin-3-yl)methyl]-2-methyl-5-(1-pentanesulfonylcarbamoyl)-3H-imidazo[4,5-b]pyridine] | 224 to 225 °C |
| CCCCS(=O)(=O)NC(=O)c1ccc2nc(C)n(Cc3ccc(NC(=O)OC(C)(C)C)cc3Cl)c2n1 [Example 109, 5-(1-butanesulfonylcarbamoyl)-3-(4-(N-t-butoxycarbonylamino)-2-chlorobenzyl)-2-methyl-3H-imidazo[4,5-b]pyridine] | 229 to 230 °C |
| CCCCS(=O)(=O)NC(=O)c1cc(C)c2nc(C)n(Cc3ccc(-c4ccco4)cc3Cl)c2n1 [Example 88, 3-[2-chloro-4-(2-furyl)benzyl]-2,7-dimethyl-5-(1-butanesulfonylcarbamoyl)-3H-imidazo[4,5-b]pyridine] | 231 to 233 °C |
| CCCCCS(=O)(=O)NC(=O)c1ccc2nc(C)n(Cc3ccc(N(CC)C(=O)OC(C)(C)C)cc3Cl)c2n1 [Example 72, 3-[4-(N-(tert-butoxycarbonyl)-N-ethylamino)-2-chlorobenzyl]-2-methyl-5-(1-pentanesulfonylcarbamoyl)-3H-imidazo[4,5-b]pyridine] | 131 to 132 °C |
| CCC/C=C/S(=O)(=O)NC(=O)c1ccc2nc(C)n(Cc3ncc(NC(=O)OC(C)(C)C)cc3Cl)c2n1 (as salt: sodium) [Example 130, 3-[(5-(N-(tert-butoxycarbonyl)amino)-3-chloropyridin-2-yl)methyl]-2-methyl-5-((E)-1-penten-1-ylsulfonylcarbamoyl)-3H-imidazo[4,5-b]pyridine] | 202 to 204 °C |
| CCCCCS(=O)(=O)NC(=O)c1ccc2nc(C)n(Cc3ncc(NC(=O)OC(C)C)cc3Cl)c2n1 [Example 135, 3-[(5-(N-(isopropoxycarbonyl)amino)-3-chloropyridin-2-yl)methyl]-2-methyl-5-(1-pentanesulfonylcarbamoyl)-3H-imidazo[4,5-b]pyridine] | 228 to 230 °C |
| CCCCCS(=O)(=O)NC(=O)c1ccc2nc(C)n(Cc3ccc(NC(=O)OC(C)(C)C)cc3Cl)c2n1 [Example 97, 3-(4-(N-(tert-butoxycarbonyl)amino)-2-chlorobenzyl)-2-methyl-5-(1-pentanesulfonylcarbamoyl)-3H-imidazo[4,5-b]pyridine] | 222 to 224 °C |
| CCCCCS(=O)(=O)NC(=O)c1ccc2nc(C)n(Cc3ccc(N(C)C(=O)OCCC)cc3Cl)c2n1 [Example 95, 3-(2-chloro-4-(N-methyl-N-(1-propoxycarbonyl)amino)benzyl)-2-methyl-5-(1-pentanesulfonylcarbamoyl)-3H-imidazo[4,5-b]pyridine] | 169 to 170 °C |
| CCC/C=C/S(=O)(=O)NC(=O)c1ccc2nc(C)n(Cc3ccc(NC(=O)OC(C)(C)C)cc3Cl)c2n1 [Example 112, 3-(4-(N-t-butoxycarbonylamino)-2-chlorobenzyl)-2-methyl-5-((E)-1-penten-1-ylsulfonylcarbamoyl)-3H-imidazo[4,5-b]pyridine] | 215 to 216 °C |
| CCCCS(=O)(=O)NC(=O)c1ccc2nc(C)n(Cc3ccc(OC(C)C)cc3Cl)c2n1 [Example 15, 5-(1-butanesulfonylcarbamoyl)-3-(2-chloro-4-isopropoxybenzyl)-2-methyl-3H-imidazo-[4,5-b]pyridine] | 138 to 141 °C |

Results, then the compound that gave them:

| melting point | SMILES |
| --- | --- |
| 148 to 149 °C | CCCCCS(=O)(=O)NC(=O)c1ccc2nc(C)n(Cc3ccc(N(C)CC)cc3Cl)c2n1 [Example 43, 3-(2-chloro-4-(ethylmethylamino)benzyl)-2-methyl-5-(1-pentanesulfonylcarbamoyl)-3H-imidazo[4,5-b]pyridine] |
| 208 to 209 °C | CCCCS(=O)(=O)NC(=O)c1ccc2nc(C)n(Cc3ccc(-c4ccco4)cc3Cl)c2n1 [Example 69, 5-(1-butanesulfonylcarbamoyl)-3-[2-chloro-4-(2-furyl)benzyl]-2-methyl-3H-imidazo[4,5-b]pyridine] |
| 131 to 134 °C | CCCCCS(=O)(=O)NC(=O)c1ccc2nc(C)n(Cc3ccc(OCCC)cc3Cl)c2n1 [Example 12, 3-(2-chloro-4-(1-propoxy)benzyl)-2-methyl-5-(1-pentanesulfonylcarbamoyl)-3H-imidazo[4,5-b]pyridine] |
| 236 to 237 °C | CCCCS(=O)(=O)NC(=O)c1ccc2nc(C)n(Cc3ccc(NC(=O)OCC)cc3Cl)c2n1 [Example 111, 3-(4-ethoxycarbonylamino-2-chlorobenzyl)-2-methyl-5-(1-butanesulfonylcarbamoyl)-3H-imidazo[4,5-b]pyridine] |
| 188 to 189 °C | CCCCCS(=O)(=O)NC(=O)c1ccc2nc(C)n(Cc3ccc(OC)cc3Cl)c2n1 [Example 5, 3-(2-chloro-4-methoxybenzyl)-2-methyl-5-(1-pentanesulfonylcarbamoyl)-3H-imidazo[4,5-b]pyridine] |
| 175 to 178 °C | CCCCCS(=O)(=O)NC(=O)c1cc(C)c2nc(C)n(Cc3ccc(C#Cc4ccccc4)cc3Cl)c2n1.[Na] |
| 207 to 208 °C | CCCCCS(=O)(=O)NC(=O)c1ccc2nc(C)n(Cc3ccc(N(C)C(=O)C(C)(C)C)cc3Cl)c2n1 [Example 64, 3-(2-chloro-4-(methyl(pivaloyl)amino)benzyl)-2-methyl-5-(1-pentanesulfonylcarbamoyl)-3H-imidazo[4,5-b]pyridine] |
| 149 to 150 °C | CCCCCOc1ccc(Cn2c(C)nc3c(C)cc(C(=O)NS(=O)(=O)CCCCC)nc32)c(Cl)c1 [Example 38, 3-[2-chloro-4-(1-pentyloxy)benzyl]-2,7-dimethyl-5-(1-pentanesulfonylcarbamoyl)-3H-imidazo[4,5-b]pyridine] |
| 120 to 121 °C | CCCCCS(=O)(=O)NC(=O)c1ccc2nc(C)n(Cc3ccc(N(C)C(=O)OCc4ccccc4)cc3Cl)c2n1 [Example 146, 3-(4-(N-(benzyloxycarbonyl)-N-methylamino)-2-chlorobenzyl)-2-methyl-5-(1-pentanesulfonylcarbamoyl)-3H-imidazo[4,5-b]pyridine] |
| 83 to 85 °C | CCCCCN(C)c1ccc(Cn2c(C)nc3ccc(C(=O)NS(=O)(=O)CCCCC)nc32)c(Cl)c1 [Example 52, 3-(2-chloro-4-(methyl-(1-pentyl)amino)benzyl)-2-methyl-5-(1-pentanesulfonylcarbamoyl)-3H-imidazo[4,5-b]pyridine] |
| 128 to 131 °C | CCCCCOc1ccc(Cn2c(C)nc3ccc(C(=O)NS(=O)(=O)CCCCC)nc32)c(Cl)c1 [Example 20, 3-(2-chloro-4-(1-pentyloxy)benzyl)-2-methyl-5-(1-pentanesulfonylcarbamoyl)-3H-imidazo[4,5-b]pyridine] |
| 169 to 170 °C | CCCCCS(=O)(=O)NC(=O)c1ccc2nc(C)n(Cc3ncc(C(F)(F)F)cc3Cl)c2n1 [Example 57, 3-[(3-chloro-5-(trifluoromethyl)-2-pyridyl)methyl]-2-methyl-5-(1-pentanesulfonylcarbamoyl)-3H-imidazo[4,5-b]pyridine] |
| 137 to 139 °C | CCCCCS(=O)(=O)NC(=O)c1ccc2nc(CC)n(Cc3ccc(OCC4CCCCC4)cc3Cl)c2n1 [Example 68, 3-(2-chloro-4-(cyclohexylmethyloxy)benzyl)-2-ethyl-5-(1-pentanesulfonylcarbamoyl)-3H-imidazo[4,5-b]pyridine] |
| 151 to 152 °C | CCCCCS(=O)(=O)NC(=O)c1ccc2nc(C)n(Cc3ccc(N(C)C(=O)OC(C)C)cc3Cl)c2n1 [Example 96, 3-(2-chloro-4-(N-methyl-N-(isopropoxycarbonyl)amino)benzyl)-2-methyl-5-(1-pentanesulfonylcarbamoyl)-3H-imidazo[4,5-b]pyridine] |
| 233 to 234 °C | CCC/C=C/S(=O)(=O)NC(=O)c1ccc2nc(C)n(Cc3ccc(NC(=O)OCC)cc3Cl)c2n1 [Example 114, 3-(4-ethoxycarbonylamino-2-chlorobenzyl)-2-methyl-5-((E)-1-penten-1-ylsulfonylcarbamoyl)-3H-imidazo[4,5-b]pyridine] |
| 185 to 186 °C | CCCCCS(=O)(=O)NC(=O)c1ccc2nc(C)n(Cc3ccc(NC)cc3Cl)c2n1 [Example 42, 3-(2-chloro-4-(methylamino)benzyl)-2-methyl-5-(1-pentanesulfonylcarbamoyl)-3H-imidazo[4,5-b]pyridine] |
| 149 to 150 °C | CCCCCS(=O)(=O)NC(=O)c1ccc2nc(C)n(Cc3ccc(N(C)C(=O)OCC)cc3Cl)c2n1 [Example 145, 3-(4-(N-(ethoxycarbonyl)-N-methylamino)-2-chlorobenzyl)-2-methyl-5-(1-pentanesulfonylcarbamoyl)-3H-imidazo[4,5-b]pyridine] |
